Test results taken from paper PMC12670405, “Second-Generation AURKA-Targeting PROTACs: Structural Optimization toward in Vivo Degradation in Neuroblastoma” (Journal of Medicinal Chemistry, 2025).

Experiments:
Experiment in all cases: KINOMEscan scanMAX
Assay type in all cases: binding
Conditions in all cases: read-out: Percent Control
IRAK4 = molecular target: T1, IRAK4 (Homo sapiens, UniProt Q9NWZ3)
T1 construct: purchased Eurofins Discovery (DiscoverX KINOMEscan scanMAX)
Method: (§1) The kinome-wide binding assay was performed by Eurofins Discovery using the scanMAX screening platform. More information can be found on the Eurofins Discovery Web site.

MET = molecular target: T2, MET (Homo sapiens, UniProt P08581)
T2 construct: purchased Eurofins Discovery (DiscoverX KINOMEscan scanMAX)
Method: as §1

PRKD2 = molecular target: T3, PRKD2 (Homo sapiens, UniProt Q9BZL6)
T3 construct: purchased Eurofins Discovery (DiscoverX KINOMEscan scanMAX)
Method: as §1

[1] = molecular target: T4, ABL1(F317I)-phosphorylated (Homo sapiens, UniProt P00519, F317I)
T4 construct: purchased Eurofins Discovery (DiscoverX KINOMEscan scanMAX)
Method: as §1

YSK1 = molecular target: T5, YSK1 (Homo sapiens, UniProt O00506)
T5 construct: purchased Eurofins Discovery (DiscoverX KINOMEscan scanMAX)
Method: as §1

CAMK1 = molecular target: T6, CAMK1 (Homo sapiens, UniProt Q14012)
T6 construct: purchased Eurofins Discovery (DiscoverX KINOMEscan scanMAX)
Method: as §1

[2] = molecular target: T7, ABL1(Y253F)-phosphorylated (Homo sapiens, UniProt P00519, Y253F)
T7 construct: purchased Eurofins Discovery (DiscoverX KINOMEscan scanMAX)
Method: as §1

DRAK2 = molecular target: T8, DRAK2 (Homo sapiens, UniProt O94768)
T8 construct: purchased Eurofins Discovery (DiscoverX KINOMEscan scanMAX)
Method: as §1

ERK3 = molecular target: T9, ERK3 (Homo sapiens, UniProt Q16659)
T9 construct: purchased Eurofins Discovery (DiscoverX KINOMEscan scanMAX)
Method: as §1

HIPK2 = molecular target: T10, HIPK2 (Homo sapiens, UniProt Q9H2X6)
T10 construct: purchased Eurofins Discovery (DiscoverX KINOMEscan scanMAX)
Method: as §1

LTK = molecular target: T11, LTK (Homo sapiens, UniProt P29376)
T11 construct: purchased Eurofins Discovery (DiscoverX KINOMEscan scanMAX)
Method: as §1

ICK = molecular target: T12, ICK (Homo sapiens, UniProt Q9UPZ9)
T12 construct: purchased Eurofins Discovery (DiscoverX KINOMEscan scanMAX)
Method: as §1

MET(M1250T) = molecular target: T13, MET(M1250T) (Homo sapiens, UniProt P08581, M1250T)
T13 construct: purchased Eurofins Discovery (DiscoverX KINOMEscan scanMAX)
Method: as §1

PRKCE = molecular target: T14, PRKCE (Homo sapiens, UniProt Q02156)
T14 construct: purchased Eurofins Discovery (DiscoverX KINOMEscan scanMAX)
Method: as §1

MST4 = molecular target: T15, MST4 (Homo sapiens, UniProt Q9P289)
T15 construct: purchased Eurofins Discovery (DiscoverX KINOMEscan scanMAX)
Method: as §1

FAK = molecular target: T16, FAK (Homo sapiens, UniProt Q05397)
T16 construct: purchased Eurofins Discovery (DiscoverX KINOMEscan scanMAX)
Method: as §1

[3] = molecular target: T17, JAK1(JH1domain-catalytic) (Homo sapiens, UniProt P23458)
T17 construct: JAK1(JH1domain-catalytic); purchased Eurofins Discovery (DiscoverX KINOMEscan scanMAX)
Method: as §1

PIK3C2G = molecular target: T18, PIK3C2G (Homo sapiens, UniProt O75747)
T18 construct: purchased Eurofins Discovery (DiscoverX KINOMEscan scanMAX)
Method: as §1

ERBB4 = molecular target: T19, ERBB4 (Homo sapiens, UniProt Q15303)
T19 construct: purchased Eurofins Discovery (DiscoverX KINOMEscan scanMAX)
Method: as §1

[4] = molecular target: T20, ABL1(T315I)-phosphorylated (Homo sapiens, UniProt P00519, T315I)
T20 construct: purchased Eurofins Discovery (DiscoverX KINOMEscan scanMAX)
Method: as §1

CAMK2G = molecular target: T21, CAMK2G (Homo sapiens, UniProt Q13555)
T21 construct: purchased Eurofins Discovery (DiscoverX KINOMEscan scanMAX)
Method: as §1

DAPK1 = molecular target: T22, DAPK1 (Homo sapiens, UniProt P53355)
T22 construct: purchased Eurofins Discovery (DiscoverX KINOMEscan scanMAX)
Method: as §1

STK35 = molecular target: T23, STK35 (Homo sapiens, UniProt Q8TDR2)
T23 construct: purchased Eurofins Discovery (DiscoverX KINOMEscan scanMAX)
Method: as §1

CAMK1B = molecular target: T24, CAMK1B (Homo sapiens, UniProt Q6P2M8)
T24 construct: purchased Eurofins Discovery (DiscoverX KINOMEscan scanMAX)
Method: as §1

[5] = molecular target: T25, RSK3(Kin.Dom.1-N-terminal) (Homo sapiens, UniProt Q15349)
T25 construct: RSK3(Kin.Dom.1-N-terminal); purchased Eurofins Discovery (DiscoverX KINOMEscan scanMAX)
Method: as §1

PIKFYVE = molecular target: T26, PIKFYVE (Homo sapiens, UniProt Q9Y2I7)
T26 construct: purchased Eurofins Discovery (DiscoverX KINOMEscan scanMAX)
Method: as §1

CHEK1 = molecular target: T27, CHEK1 (Homo sapiens, UniProt O14757)
T27 construct: purchased Eurofins Discovery (DiscoverX KINOMEscan scanMAX)
Method: as §1

TRKA = molecular target: T28, TRKA (Homo sapiens, UniProt P04629)
T28 construct: purchased Eurofins Discovery (DiscoverX KINOMEscan scanMAX)
Method: as §1

MLK2 = molecular target: T29, MLK2 (Homo sapiens, UniProt Q02779)
T29 construct: purchased Eurofins Discovery (DiscoverX KINOMEscan scanMAX)
Method: as §1

JNK3 = molecular target: T30, JNK3 (Homo sapiens, UniProt P53779)
T30 construct: purchased Eurofins Discovery (DiscoverX KINOMEscan scanMAX)
Method: as §1

ADCK4 = molecular target: T31, ADCK4 (Homo sapiens, UniProt Q96D53)
T31 construct: purchased Eurofins Discovery (DiscoverX KINOMEscan scanMAX)
Method: as §1

FLT1 = molecular target: T32, FLT1 (Homo sapiens, UniProt P17948)
T32 construct: purchased Eurofins Discovery (DiscoverX KINOMEscan scanMAX)
Method: as §1

PAK1 = molecular target: T33, PAK1 (Homo sapiens, UniProt Q13153)
T33 construct: purchased Eurofins Discovery (DiscoverX KINOMEscan scanMAX)
Method: as §1

T26 sequence (Q9Y2I7 whole entry): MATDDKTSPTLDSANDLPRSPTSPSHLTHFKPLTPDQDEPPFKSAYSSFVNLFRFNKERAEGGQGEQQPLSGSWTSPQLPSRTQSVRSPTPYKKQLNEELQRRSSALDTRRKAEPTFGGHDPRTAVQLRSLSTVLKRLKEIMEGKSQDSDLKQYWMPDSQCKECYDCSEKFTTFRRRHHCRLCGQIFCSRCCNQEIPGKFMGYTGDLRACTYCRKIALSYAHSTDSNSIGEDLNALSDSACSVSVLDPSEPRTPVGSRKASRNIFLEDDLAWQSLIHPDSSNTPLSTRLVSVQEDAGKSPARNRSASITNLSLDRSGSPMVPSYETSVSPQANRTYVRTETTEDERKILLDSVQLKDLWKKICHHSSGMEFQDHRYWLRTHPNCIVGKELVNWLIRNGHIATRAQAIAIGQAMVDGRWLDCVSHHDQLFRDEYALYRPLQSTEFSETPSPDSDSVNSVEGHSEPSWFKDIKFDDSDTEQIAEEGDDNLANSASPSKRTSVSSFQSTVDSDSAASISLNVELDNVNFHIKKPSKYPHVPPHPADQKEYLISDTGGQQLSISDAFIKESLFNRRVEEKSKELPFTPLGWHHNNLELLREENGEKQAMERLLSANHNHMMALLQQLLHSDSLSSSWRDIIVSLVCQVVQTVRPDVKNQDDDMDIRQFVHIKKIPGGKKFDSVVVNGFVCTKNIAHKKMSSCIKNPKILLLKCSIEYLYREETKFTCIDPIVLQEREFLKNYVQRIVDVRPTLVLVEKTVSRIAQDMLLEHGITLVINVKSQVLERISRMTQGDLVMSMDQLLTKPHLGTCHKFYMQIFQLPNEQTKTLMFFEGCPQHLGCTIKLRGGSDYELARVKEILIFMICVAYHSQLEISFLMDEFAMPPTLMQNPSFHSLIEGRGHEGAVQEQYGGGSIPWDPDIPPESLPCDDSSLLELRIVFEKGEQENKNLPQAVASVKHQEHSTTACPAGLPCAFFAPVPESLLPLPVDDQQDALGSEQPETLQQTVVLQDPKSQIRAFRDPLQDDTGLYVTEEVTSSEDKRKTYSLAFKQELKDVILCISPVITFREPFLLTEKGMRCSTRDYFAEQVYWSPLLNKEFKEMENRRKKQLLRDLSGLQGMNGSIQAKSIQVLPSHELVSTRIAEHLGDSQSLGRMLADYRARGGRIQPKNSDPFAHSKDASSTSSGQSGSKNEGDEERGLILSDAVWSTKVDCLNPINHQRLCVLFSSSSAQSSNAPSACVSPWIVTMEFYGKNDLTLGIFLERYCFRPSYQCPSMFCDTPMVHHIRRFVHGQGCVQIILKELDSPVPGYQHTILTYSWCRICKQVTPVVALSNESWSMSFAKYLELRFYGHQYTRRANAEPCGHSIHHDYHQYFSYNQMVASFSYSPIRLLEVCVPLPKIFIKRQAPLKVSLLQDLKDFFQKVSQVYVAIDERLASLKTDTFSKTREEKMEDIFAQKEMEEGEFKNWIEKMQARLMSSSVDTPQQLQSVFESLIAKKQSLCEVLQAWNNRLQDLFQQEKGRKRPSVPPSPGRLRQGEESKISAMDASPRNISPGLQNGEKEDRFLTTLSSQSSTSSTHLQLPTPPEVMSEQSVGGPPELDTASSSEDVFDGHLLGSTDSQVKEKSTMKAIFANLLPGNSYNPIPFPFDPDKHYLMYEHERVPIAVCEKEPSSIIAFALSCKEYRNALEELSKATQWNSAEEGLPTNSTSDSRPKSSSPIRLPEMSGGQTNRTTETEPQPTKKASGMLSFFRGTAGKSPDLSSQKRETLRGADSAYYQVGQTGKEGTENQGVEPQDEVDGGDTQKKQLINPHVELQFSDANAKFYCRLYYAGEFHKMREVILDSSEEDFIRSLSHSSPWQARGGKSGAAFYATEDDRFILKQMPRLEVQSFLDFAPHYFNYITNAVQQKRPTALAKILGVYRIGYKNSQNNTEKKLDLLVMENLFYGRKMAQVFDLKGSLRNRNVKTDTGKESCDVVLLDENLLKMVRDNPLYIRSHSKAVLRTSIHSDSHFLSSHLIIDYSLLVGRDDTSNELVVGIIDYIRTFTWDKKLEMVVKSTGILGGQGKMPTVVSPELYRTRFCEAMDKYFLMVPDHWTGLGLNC
T10 sequence (Q9H2X6 whole entry): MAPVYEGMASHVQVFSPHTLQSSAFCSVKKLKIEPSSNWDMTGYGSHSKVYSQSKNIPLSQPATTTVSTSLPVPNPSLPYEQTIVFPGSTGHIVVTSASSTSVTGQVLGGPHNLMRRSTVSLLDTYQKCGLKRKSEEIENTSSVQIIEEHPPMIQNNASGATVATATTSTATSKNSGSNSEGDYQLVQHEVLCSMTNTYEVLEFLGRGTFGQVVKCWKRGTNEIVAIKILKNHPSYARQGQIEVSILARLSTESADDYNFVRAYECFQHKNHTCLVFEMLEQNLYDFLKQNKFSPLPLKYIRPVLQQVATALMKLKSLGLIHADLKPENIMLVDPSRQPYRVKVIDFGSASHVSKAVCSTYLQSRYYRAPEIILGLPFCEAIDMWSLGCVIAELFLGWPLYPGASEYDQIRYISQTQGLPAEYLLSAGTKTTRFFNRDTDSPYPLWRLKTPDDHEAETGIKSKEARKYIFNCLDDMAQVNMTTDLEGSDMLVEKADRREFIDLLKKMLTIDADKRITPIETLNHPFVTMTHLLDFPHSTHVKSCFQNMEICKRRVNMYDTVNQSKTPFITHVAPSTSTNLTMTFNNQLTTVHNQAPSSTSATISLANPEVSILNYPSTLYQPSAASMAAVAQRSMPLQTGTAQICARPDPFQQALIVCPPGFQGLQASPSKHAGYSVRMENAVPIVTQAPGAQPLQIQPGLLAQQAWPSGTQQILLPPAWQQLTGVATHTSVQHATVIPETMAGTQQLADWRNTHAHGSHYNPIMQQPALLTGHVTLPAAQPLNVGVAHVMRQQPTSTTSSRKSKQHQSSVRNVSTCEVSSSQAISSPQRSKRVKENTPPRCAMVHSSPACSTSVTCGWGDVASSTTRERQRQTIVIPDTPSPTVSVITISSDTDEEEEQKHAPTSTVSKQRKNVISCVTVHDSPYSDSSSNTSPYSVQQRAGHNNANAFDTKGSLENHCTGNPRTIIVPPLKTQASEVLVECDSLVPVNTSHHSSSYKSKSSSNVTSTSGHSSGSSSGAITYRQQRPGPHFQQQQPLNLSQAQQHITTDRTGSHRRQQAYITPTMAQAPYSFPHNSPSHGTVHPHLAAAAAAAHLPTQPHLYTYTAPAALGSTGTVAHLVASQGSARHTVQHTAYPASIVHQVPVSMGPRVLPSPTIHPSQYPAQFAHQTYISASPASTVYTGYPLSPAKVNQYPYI
T8 sequence (O94768 whole entry): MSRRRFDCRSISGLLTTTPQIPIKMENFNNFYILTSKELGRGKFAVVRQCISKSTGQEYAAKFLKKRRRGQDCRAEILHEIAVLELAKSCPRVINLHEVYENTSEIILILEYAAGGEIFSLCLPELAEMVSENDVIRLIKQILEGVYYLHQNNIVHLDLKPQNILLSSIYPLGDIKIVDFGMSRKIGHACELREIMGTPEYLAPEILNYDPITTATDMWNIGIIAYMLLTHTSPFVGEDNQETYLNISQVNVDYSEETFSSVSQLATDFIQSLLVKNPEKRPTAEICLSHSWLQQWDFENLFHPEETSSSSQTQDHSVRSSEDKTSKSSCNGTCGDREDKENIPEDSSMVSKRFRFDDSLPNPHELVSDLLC
T1 sequence (Q9NWZ3 whole entry): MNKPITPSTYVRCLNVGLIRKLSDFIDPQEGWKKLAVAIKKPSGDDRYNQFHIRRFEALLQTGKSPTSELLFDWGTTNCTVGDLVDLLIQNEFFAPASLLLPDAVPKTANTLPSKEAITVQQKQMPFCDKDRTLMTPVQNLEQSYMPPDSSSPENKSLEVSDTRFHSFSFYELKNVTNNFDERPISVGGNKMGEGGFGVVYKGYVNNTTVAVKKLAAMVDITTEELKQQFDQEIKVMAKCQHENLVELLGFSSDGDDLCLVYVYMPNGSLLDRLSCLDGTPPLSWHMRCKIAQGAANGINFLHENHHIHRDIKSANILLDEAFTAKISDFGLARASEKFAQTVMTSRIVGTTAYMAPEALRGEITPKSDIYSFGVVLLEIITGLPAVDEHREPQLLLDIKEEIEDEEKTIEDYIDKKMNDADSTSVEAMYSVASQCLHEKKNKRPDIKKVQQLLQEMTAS
T15 sequence (Q9P289 whole entry): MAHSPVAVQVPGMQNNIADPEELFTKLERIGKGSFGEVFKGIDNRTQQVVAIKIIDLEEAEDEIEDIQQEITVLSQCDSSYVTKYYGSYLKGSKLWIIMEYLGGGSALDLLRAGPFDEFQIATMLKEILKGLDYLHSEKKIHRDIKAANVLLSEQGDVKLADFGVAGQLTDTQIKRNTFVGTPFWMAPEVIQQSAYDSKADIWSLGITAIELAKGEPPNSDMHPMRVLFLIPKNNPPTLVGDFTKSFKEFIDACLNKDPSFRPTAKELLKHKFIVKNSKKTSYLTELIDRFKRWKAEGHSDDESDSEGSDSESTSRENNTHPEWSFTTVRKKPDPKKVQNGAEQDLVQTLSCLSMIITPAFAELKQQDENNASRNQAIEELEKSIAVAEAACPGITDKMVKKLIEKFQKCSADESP
T21 sequence (Q13555 whole entry): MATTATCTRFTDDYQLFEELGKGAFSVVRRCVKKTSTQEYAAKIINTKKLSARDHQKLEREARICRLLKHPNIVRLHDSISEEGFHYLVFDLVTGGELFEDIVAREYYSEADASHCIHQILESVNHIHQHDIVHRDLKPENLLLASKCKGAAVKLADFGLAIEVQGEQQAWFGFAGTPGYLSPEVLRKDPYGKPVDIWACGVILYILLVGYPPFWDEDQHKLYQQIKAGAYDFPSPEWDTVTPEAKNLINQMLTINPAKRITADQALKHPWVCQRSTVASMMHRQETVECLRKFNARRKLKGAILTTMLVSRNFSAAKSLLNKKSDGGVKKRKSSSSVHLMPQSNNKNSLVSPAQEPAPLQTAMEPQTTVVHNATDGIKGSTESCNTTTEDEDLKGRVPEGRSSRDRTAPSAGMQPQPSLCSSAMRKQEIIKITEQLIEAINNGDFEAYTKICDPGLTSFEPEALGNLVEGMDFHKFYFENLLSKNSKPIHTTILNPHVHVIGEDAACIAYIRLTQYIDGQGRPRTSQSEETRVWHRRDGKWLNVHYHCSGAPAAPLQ

## Cc1cc(Nc2ccc(F)c(CC3(C(=O)N4CCC(F)(CN5CCN(c6ccc(N7CCC(=O)NC7=O)cn6)CC5)CC4)CCN(Cc4cccc(Cl)c4F)CC3)n2)n[nH]1 [SK5527]
IRAK4; 100 nM
  remaining binding at 0.1 µM: 87%
IRAK4; 1000 nM
  remaining binding at 1 µM: 70%
MET; 100 nM
  remaining binding at 0.1 µM: 94%
MET; 1000 nM
  remaining binding at 1 µM: 81%
PRKD2; 100 nM
  remaining binding at 0.1 µM: 78%
PRKD2; 1000 nM
  remaining binding at 1 µM: 90%
[1]; 100 nM
  remaining binding at 0.1 µM: 95%
[1]; 1000 nM
  remaining binding at 1 µM: 69%
YSK1; 100 nM
  remaining binding at 0.1 µM: 100%
YSK1; 1000 nM
  remaining binding at 1 µM: 98%
CAMK1; 100 nM
  remaining binding at 0.1 µM: 100%
CAMK1; 1000 nM
  remaining binding at 1 µM: 98%
[2]; 100 nM
  remaining binding at 0.1 µM: 63%
[2]; 1000 nM
  remaining binding at 1 µM: 36%
DRAK2; 100 nM
  remaining binding at 0.1 µM: 100%
DRAK2; 1000 nM
  remaining binding at 1 µM: 100%
ERK3; 100 nM
  remaining binding at 0.1 µM: 100%
ERK3; 1000 nM
  remaining binding at 1 µM: 94%
HIPK2; 100 nM
  remaining binding at 0.1 µM: 100%
HIPK2; 1000 nM
  remaining binding at 1 µM: 91%
LTK; 100 nM
  remaining binding at 0.1 µM: 100%
LTK; 1000 nM
  remaining binding at 1 µM: 100%
ICK; 100 nM
  remaining binding at 0.1 µM: 92%
ICK; 1000 nM
  remaining binding at 1 µM: 48%
MET(M1250T); 100 nM
  remaining binding at 0.1 µM: 85%
MET(M1250T); 1000 nM
  remaining binding at 1 µM: 80%
PRKCE; 100 nM
  remaining binding at 0.1 µM: 100%
PRKCE; 1000 nM
  remaining binding at 1 µM: 95%
MST4; 100 nM
  remaining binding at 0.1 µM: 95%
MST4; 1000 nM
  remaining binding at 1 µM: 86%
FAK; 100 nM
  remaining binding at 0.1 µM: 90%
FAK; 1000 nM
  remaining binding at 1 µM: 77%
[3]; 100 nM
  remaining binding at 0.1 µM: 82%
[3]; 1000 nM
  remaining binding at 1 µM: 93%
PIK3C2G; 100 nM
  remaining binding at 0.1 µM: 71%
PIK3C2G; 1000 nM
  remaining binding at 1 µM: 98%
ERBB4; 100 nM
  remaining binding at 0.1 µM: 100%
ERBB4; 1000 nM
  remaining binding at 1 µM: 100%
[4]; 100 nM
  remaining binding at 0.1 µM: 62%
[4]; 1000 nM
  remaining binding at 1 µM: 17%
CAMK2G; 100 nM
  remaining binding at 0.1 µM: 100%
CAMK2G; 1000 nM
  remaining binding at 1 µM: 100%
DAPK1; 100 nM
  remaining binding at 0.1 µM: 85%
DAPK1; 1000 nM
  remaining binding at 1 µM: 81%
STK35; 100 nM
  remaining binding at 0.1 µM: 99%
STK35; 1000 nM
  remaining binding at 1 µM: 80%
CAMK1B; 100 nM
  remaining binding at 0.1 µM: 100%
CAMK1B; 1000 nM
  remaining binding at 1 µM: 100%
[5]; 100 nM
  remaining binding at 0.1 µM: 100%
[5]; 1000 nM
  remaining binding at 1 µM: 96%
PIKFYVE; 100 nM
  remaining binding at 0.1 µM: 100%
PIKFYVE; 1000 nM
  remaining binding at 1 µM: 100%
CHEK1; 100 nM
  remaining binding at 0.1 µM: 100%
CHEK1; 1000 nM
  remaining binding at 1 µM: 100%
TRKA; 100 nM
  remaining binding at 0.1 µM: 32%
TRKA; 1000 nM
  remaining binding at 1 µM: 8.3%
MLK2; 100 nM
  remaining binding at 0.1 µM: 100%
MLK2; 1000 nM
  remaining binding at 1 µM: 100%
JNK3; 100 nM
  remaining binding at 0.1 µM: 63%
JNK3; 1000 nM
  remaining binding at 1 µM: 69%
ADCK4; 100 nM
  remaining binding at 0.1 µM: 92%
ADCK4; 1000 nM
  remaining binding at 1 µM: 84%
FLT1; 100 nM
  remaining binding at 0.1 µM: 91%
FLT1; 1000 nM
  remaining binding at 1 µM: 86%
PAK1; 100 nM
  remaining binding at 0.1 µM: 100%
PAK1; 1000 nM
  remaining binding at 1 µM: 88%
